Legend:
[1] = compound: O=C(NC1CCNCC1)c1n[nH]cc1NC(=O)c1c(Cl)cccc1Cl [AT-7519]; assay: relative viability (nuclei count vs DMSO), 5 days (fraction); higher = more cells survive
Method in brief: (§1)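 Viability was defined as treated-well nuclei divided by vehicle-well nuclei, with the median taken over replicate plates. Cells from lung cancer lines sat overnight at 37 °C in 1536-well plates, received five √10-spaced library-drug doses by pinning on vehicle-anchored plates, and grew 5 days without medium change before one-step fixation, permeabilisation and Hoechst staining, 4× imaging and MetaXpress nuclear counts. Only plates with control CV under 25% and at least one doubling were kept.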

[2] = compound: C1=CC2=C(C=C(C(=C2N=C1)O)N=NC3=CC4=C(C=C3)C=C(C=C4)S(=O)(=O)O)S(=O)(=O)O; assay: as above
Method in brief: as §1

With PC-14 the relative viability ([1]; 0.01 µM) was 0.971, the relative viability ([1]; 0.03162 µM) was 0.94 and the relative viability ([1]; 0.3162 µM) was 0.928. The relative viability ([1]; 1 µM) was 0.714, the relative viability ([2]; 0.08 µM) was 1.02 and the relative viability ([2]; 0.253 µM) was 0.95. It also gave a relative viability ([2]; 0.8 µM) of 0.944, a relative viability ([2]; 2.53 µM) of 1.07 and a relative viability ([2]; 8 µM) of 0.94.
For RERF-LC-KJ, the relative viability ([1]; 0.01 µM) was 1.01, the relative viability ([1]; 0.03162 µM) was 0.995 and the relative viability ([1]; 0.3162 µM) was 0.991. The relative viability ([1]; 1 µM) was 0.675, the relative viability ([2]; 0.08 µM) was 1.08 and the relative viability ([2]; 0.253 µM) was 1.04. For the same cell line, the relative viability ([2]; 0.8 µM) was 1.03, the relative viability ([2]; 2.53 µM) was 1.01 and the relative viability ([2]; 8 µM) was 0.967.
Cell Line SK-LU-1 has a relative viability ([1]; 0.01 µM) of 1.08, a relative viability ([1]; 0.03162 µM) of 0.959 and a relative viability ([1]; 0.3162 µM) of 0.924. For the same cell line, the relative viability ([1]; 1 µM) was 0.73, the relative viability ([2]; 0.08 µM) was 1.17 and the relative viability ([2]; 0.253 µM) was 1.02. For the same cell line, the relative viability ([2]; 0.8 µM) was 1.02, the relative viability ([2]; 2.53 µM) was 0.979 and the relative viability ([2]; 8 µM) was 0.988.
SK-MES-1 showed a relative viability ([1]; 0.01 µM) of 1.02, a relative viability ([1]; 0.03162 µM) of 0.968 and a relative viability ([1]; 0.3162 µM) of 1. It also gave a relative viability ([1]; 1 µM) of 0.771, a relative viability ([2]; 0.08 µM) of 1.03 and a relative viability ([2]; 0.253 µM) of 0.967. The relative viability ([2]; 0.8 µM) was 0.968, the relative viability ([2]; 2.53 µM) was 0.987 and the relative viability ([2]; 8 µM) was 1.02.
With SW 900 the relative viability ([1]; 0.01 µM) was 0.771, the relative viability ([1]; 0.03162 µM) was 0.866 and the relative viability ([1]; 0.3162 µM) was 0.786. For the same cell line, the relative viability ([1]; 1 µM) was 0.657, the relative viability ([2]; 0.08 µM) was 1.07 and the relative viability ([2]; 0.253 µM) was 0.971. The relative viability ([2]; 0.8 µM) was 0.802, the relative viability ([2]; 2.53 µM) was 0.918 and the relative viability ([2]; 8 µM) was 0.841.
SW 1573 was tested, and the relative viability ([1]; 0.01 µM) was 0.988, the relative viability ([1]; 0.03162 µM) was 0.84 and the relative viability ([1]; 0.3162 µM) was 0.753. For the same cell line, the relative viability ([1]; 1 µM) was 0.312, the relative viability ([2]; 0.08 µM) was 1.11 and the relative viability ([2]; 0.253 µM) was 1.03. For the same cell line, the relative viability ([2]; 0.8 µM) was 0.944, the relative viability ([2]; 2.53 µM) was 1.01 and the relative viability ([2]; 8 µM) was 0.815.

Source: the supplement of paper PMC10307832
